Key:
Type in all cases: in vivo
[1] = test system: Barnyardgrass; experiment: Post-emergence herbicidal activity, greenhouse
Summary of the method: (§1)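 2–3-week-old plants, post-emergence atomizer spray, ~0.4% emulsifier; candidate from 1.0% stock in acetone, THF or water. Greenhouse hold; injury vs control at ~2/4 WAT.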

[2] = test system: Canada Thistle; experiment: Post-emergence herbicidal activity, greenhouse; conditions: Table I, 4 WAT
Summary of the method: as §1

[3] = test system: Cocklebur; experiment: Post-emergence herbicidal activity, greenhouse
Summary of the method: as §1

[4] = test system: Crabgrass; experiment: Post-emergence herbicidal activity, greenhouse; conditions: Table II
Summary of the method: as §1

[5] = test system: Downy Brome; experiment: Post-emergence herbicidal activity, greenhouse
Summary of the method: as §1

[6] = test system: Hemp Sesbania; experiment: Post-emergence herbicidal activity, greenhouse; conditions: Table II
Summary of the method: as §1

[7] = test system: Johnsongrass; experiment: Post-emergence herbicidal activity, greenhouse; conditions: Table I, 4 WAT
Summary of the method: as §1

[8] = test system: Lambsquarters; experiment: Post-emergence herbicidal activity, greenhouse
Summary of the method: as §1

[9] = test system: Morningglory; experiment: Post-emergence herbicidal activity, greenhouse
Summary of the method: as §1

[10] = test system: Panicum Spp; experiment: Post-emergence herbicidal activity, greenhouse; conditions: Table II
Summary of the method: as §1

[11] = test system: Quackgrass; experiment: Post-emergence herbicidal activity, greenhouse; conditions: Table I, 4 WAT
Summary of the method: as §1

[12] = test system: Rice; experiment: Post-emergence herbicidal activity, greenhouse; conditions: Table II
Summary of the method: as §1

[13] = test system: Smartweed; experiment: Post-emergence herbicidal activity, greenhouse
Summary of the method: as §1

[14] = test system: Sorghum; experiment: Post-emergence herbicidal activity, greenhouse; conditions: Table II
Summary of the method: as §1

[15] = test system: Soybean; experiment: Post-emergence herbicidal activity, greenhouse; conditions: Table II
Summary of the method: as §1

[16] = test system: Sugar Beet; experiment: Post-emergence herbicidal activity, greenhouse; conditions: Table II
Summary of the method: as §1

[17] = test system: Velvetleaf; experiment: Post-emergence herbicidal activity, greenhouse
Summary of the method: as §1

[18] = test system: Wheat; experiment: Post-emergence herbicidal activity, greenhouse; conditions: Table II
Summary of the method: as §1

[19] = test system: Wild Buckwheat; experiment: Post-emergence herbicidal activity, greenhouse; conditions: Table II
Summary of the method: as §1

[20] = test system: Yellow Nutsedge; experiment: Post-emergence herbicidal activity, greenhouse; conditions: Table I, 4 WAT
Summary of the method: as §1

[21] = test system: Barnyardgrass; experiment: Pre-emergent herbicidal activity; conditions: Table III; 11.2 kg/h; 2 WAT
Source text: (§2) A good grade of top soil is placed in aluminum pans and compacted to a depth of 0.95 to 1.27 cm. from the top of each pan. A predetermined number of seeds or vegetative propagules of each of several plant species are placed on top of the soil in each pan and then pressed down. Herbicidal compositions prepared as in the previous example are applied by admixture with or incorporation in the top layer of soil.
(§3) In this method, the soil required to cover the seeds and propagules is weighed and admixed with a herbicidal composition containing a known amount of the active ingredient (compound of this invention). The pans are then filled with the admixture and leveled. Watering is carried out by permitting the soil in the pans to absorb moisture through apertures in the pan bottoms. The seed and propagule containing pans are placed on a wet sand bench and maintained for approximately two weeks under ordinary conditions of sunlight and watering. At the end of this period, the number of emerged plants of each species is noted and compared to an untreated control.
(§4) The pre-emergent herbicidal activity index used below is based upon average percent control of each species as follows:
(§5) Plant species in the table are identified by the same code letters used in the previous example.

[22] = test system: Canada Thistle; experiment: Pre-emergent herbicidal activity; conditions: Table III; 11.2 kg/h; 2 WAT
Source text: as §2, §3, §4, §5

[23] = test system: Cocklebur; experiment: Pre-emergent herbicidal activity; conditions: Table III; 11.2 kg/h; 2 WAT
Source text: as §2, §3, §4, §5

[24] = test system: Downy Brome; experiment: Pre-emergent herbicidal activity; conditions: Table III; 11.2 kg/h; 2 WAT
Source text: as §2, §3, §4, §5

[25] = test system: Johnsongrass; experiment: Pre-emergent herbicidal activity; conditions: Table III; 11.2 kg/h; 2 WAT
Source text: as §2, §3, §4, §5

[26] = test system: Lambsquarters; experiment: Pre-emergent herbicidal activity; conditions: Table III; 11.2 kg/h; 2 WAT
Source text: as §2, §3, §4, §5

[27] = test system: Morningglory; experiment: Pre-emergent herbicidal activity; conditions: Table III; 11.2 kg/h; 2 WAT
Source text: as §2, §3, §4, §5

[28] = test system: Quackgrass; experiment: Pre-emergent herbicidal activity; conditions: Table III; 11.2 kg/h; 2 WAT
Source text: as §2, §3, §4, §5

[29] = test system: Smartweed; experiment: Pre-emergent herbicidal activity; conditions: Table III; 11.2 kg/h; 2 WAT
Source text: as §2, §3, §4, §5

[30] = test system: Velvetleaf; experiment: Pre-emergent herbicidal activity; conditions: Table III; 11.2 kg/h; 2 WAT
Source text: as §2, §3, §4, §5

[31] = test system: Yellow Nutsedge; experiment: Pre-emergent herbicidal activity; conditions: Table III; 11.2 kg/h; 2 WAT
Source text: as §2, §3, §4, §5

## COC(=O)CN(CP(=O)(Oc1ccccc1OC)Oc1ccccc1OC)SSc1cccc(C(F)(F)F)c1 [V]
[1]; Table I, 5.6 kg/h, 4 WAT
  post-emergence herbicidal activity index: 3 (75-99% control)
[1]; Table I, 11.2 kg/h, 4 WAT
  post-emergence herbicidal activity index: 3 (75-99% control)
[1]; Table II, 0.28 kg/h, 2 WAT
  post-emergence herbicidal activity index: 0 (0- 24% control)
[1]; Table II, 1.12 kg/h, 4 WAT
  post-emergence herbicidal activity index: 0 (0- 24% control)
[1]; Table II, 5.6 kg/h, 4 WAT
  post-emergence herbicidal activity index: 3 (75-99% control)
[2]; 5.6 kg/h
  post-emergence herbicidal activity index: 0 (0- 24% control)
[2]; 11.2 kg/h
  post-emergence herbicidal activity index: 1 (25-49% control)
[3]; Table I, 5.6 kg/h, 4 WAT
  post-emergence herbicidal activity index: 2 (50-74% control)
[3]; Table I, 11.2 kg/h, 4 WAT
  post-emergence herbicidal activity index: 3 (75-99% control)
[3]; Table II, 0.28 kg/h, 2 WAT
  post-emergence herbicidal activity index: 0 (0- 24% control)
[3]; Table II, 1.12 kg/h, 4 WAT
  post-emergence herbicidal activity index: 1 (25-49% control)
[3]; Table II, 5.6 kg/h, 4 WAT
  post-emergence herbicidal activity index: 3 (75-99% control)
[4]; 0.28 kg/h, 2 WAT
  post-emergence herbicidal activity index: 0 (0- 24% control)
[4]; 1.12 kg/h, 4 WAT
  post-emergence herbicidal activity index: 2 (50-74% control)
[4]; 5.6 kg/h, 4 WAT
  post-emergence herbicidal activity index: 3 (75-99% control)
[5]; Table I, 5.6 kg/h, 4 WAT
  post-emergence herbicidal activity index: 1 (25-49% control)
[5]; Table I, 11.2 kg/h, 4 WAT
  post-emergence herbicidal activity index: 1 (25-49% control)
[5]; Table II, 0.28 kg/h, 2 WAT
  post-emergence herbicidal activity index: 0 (0- 24% control)
[5]; Table II, 1.12 kg/h, 4 WAT
  post-emergence herbicidal activity index: 0 (0- 24% control)
[5]; Table II, 5.6 kg/h, 4 WAT
  post-emergence herbicidal activity index: 0 (0- 24% control)
[6]; 0.28 kg/h, 2 WAT
  post-emergence herbicidal activity index: 0 (0- 24% control)
[6]; 1.12 kg/h, 4 WAT
  post-emergence herbicidal activity index: 2 (50-74% control)
[6]; 5.6 kg/h, 4 WAT
  post-emergence herbicidal activity index: 1 (25-49% control)
[7]; 5.6 kg/h
  post-emergence herbicidal activity index: 1 (25-49% control)
[7]; 11.2 kg/h
  post-emergence herbicidal activity index: 2 (50-74% control)
[8]; Table I, 5.6 kg/h, 4 WAT
  post-emergence herbicidal activity index: 3 (75-99% control)
[8]; Table I, 11.2 kg/h, 4 WAT
  post-emergence herbicidal activity index: 3 (75-99% control)
[8]; Table II, 0.28 kg/h, 2 WAT
  post-emergence herbicidal activity index: 0 (0- 24% control)
[8]; Table II, 1.12 kg/h, 4 WAT
  post-emergence herbicidal activity index: 3 (75-99% control)
[8]; Table II, 5.6 kg/h, 4 WAT
  post-emergence herbicidal activity index: 3 (75-99% control)
[9]; Table I, 5.6 kg/h, 4 WAT
  post-emergence herbicidal activity index: 1 (25-49% control)
[9]; Table I, 11.2 kg/h, 4 WAT
  post-emergence herbicidal activity index: 2 (50-74% control)
[9]; Table II, 0.28 kg/h, 2 WAT
  post-emergence herbicidal activity index: 0 (0- 24% control)
[9]; Table II, 1.12 kg/h, 4 WAT
  post-emergence herbicidal activity index: 1 (25-49% control)
[9]; Table II, 5.6 kg/h, 4 WAT
  post-emergence herbicidal activity index: 1 (25-49% control)
[10]; 0.28 kg/h, 2 WAT
  post-emergence herbicidal activity index: 0 (0- 24% control)
[10]; 1.12 kg/h, 4 WAT
  post-emergence herbicidal activity index: 0 (0- 24% control)
[10]; 5.6 kg/h, 4 WAT
  post-emergence herbicidal activity index: 1 (25-49% control)
[11]; 5.6 kg/h
  post-emergence herbicidal activity index: 1 (25-49% control)
[11]; 11.2 kg/h
  post-emergence herbicidal activity index: 4 (100% control)
[12]; 0.28 kg/h, 2 WAT
  post-emergence herbicidal activity index: 0 (0- 24% control)
[12]; 1.12 kg/h, 4 WAT
  post-emergence herbicidal activity index: 0 (0- 24% control)
[12]; 5.6 kg/h, 4 WAT
  post-emergence herbicidal activity index: 1 (25-49% control)
[13]; Table I, 5.6 kg/h, 4 WAT
  post-emergence herbicidal activity index: 1 (25-49% control)
[13]; Table I, 11.2 kg/h, 4 WAT
  post-emergence herbicidal activity index: 2 (50-74% control)
[13]; Table II, 0.28 kg/h, 2 WAT
  post-emergence herbicidal activity index: 0 (0- 24% control)
[13]; Table II, 1.12 kg/h, 4 WAT
  post-emergence herbicidal activity index: 3 (75-99% control)
[13]; Table II, 5.6 kg/h, 4 WAT
  post-emergence herbicidal activity index: 2 (50-74% control)
[14]; 0.28 kg/h, 2 WAT
  post-emergence herbicidal activity index: 0 (0- 24% control)
[14]; 1.12 kg/h, 4 WAT
  post-emergence herbicidal activity index: 0 (0- 24% control)
[14]; 5.6 kg/h, 4 WAT
  post-emergence herbicidal activity index: 0 (0- 24% control)
[15]; 0.28 kg/h, 2 WAT
  post-emergence herbicidal activity index: 0 (0- 24% control)
[15]; 1.12 kg/h, 4 WAT
  post-emergence herbicidal activity index: 0 (0- 24% control)
[15]; 5.6 kg/h, 4 WAT
  post-emergence herbicidal activity index: 1 (25-49% control)
[16]; 0.28 kg/h, 2 WAT
  post-emergence herbicidal activity index: 0 (0- 24% control)
[16]; 1.12 kg/h, 4 WAT
  post-emergence herbicidal activity index: 2 (50-74% control)
[16]; 5.6 kg/h, 4 WAT
  post-emergence herbicidal activity index: 2 (50-74% control)
[17]; Table I, 5.6 kg/h, 4 WAT
  post-emergence herbicidal activity index: 1 (25-49% control)
[17]; Table I, 11.2 kg/h, 4 WAT
  post-emergence herbicidal activity index: 0 (0- 24% control)
[17]; Table II, 0.28 kg/h, 2 WAT
  post-emergence herbicidal activity index: 0 (0- 24% control)
[17]; Table II, 1.12 kg/h, 4 WAT
  post-emergence herbicidal activity index: 0 (0- 24% control)
[17]; Table II, 5.6 kg/h, 4 WAT
  post-emergence herbicidal activity index: 1 (25-49% control)
[18]; 0.28 kg/h, 2 WAT
  post-emergence herbicidal activity index: 0 (0- 24% control)
[18]; 1.12 kg/h, 4 WAT
  post-emergence herbicidal activity index: 1 (25-49% control)
[18]; 5.6 kg/h, 4 WAT
  post-emergence herbicidal activity index: 3 (75-99% control)
[19]; 0.28 kg/h, 2 WAT
  post-emergence herbicidal activity index: 0 (0- 24% control)
[19]; 1.12 kg/h, 4 WAT
  post-emergence herbicidal activity index: 0 (0- 24% control)
[19]; 5.6 kg/h, 4 WAT
  post-emergence herbicidal activity index: 0 (0- 24% control)
[20]; 5.6 kg/h
  post-emergence herbicidal activity index: 1 (25-49% control)
[20]; 11.2 kg/h
  post-emergence herbicidal activity index: 1 (25-49% control)
[21]
  pre-emergent herbicidal activity index: 3 (75-100% control)
[22]
  pre-emergent herbicidal activity index: 2 (50-74% control)
[23]
  pre-emergent herbicidal activity index: 0 (0-24% control)
[24]
  pre-emergent herbicidal activity index: 2 (50-74% control)
[25]
  pre-emergent herbicidal activity index: 3 (75-100% control)
[26]
  pre-emergent herbicidal activity index: 0 (0-24% control)
[27]
  pre-emergent herbicidal activity index: 1 (25-49% control)
[28]
  pre-emergent herbicidal activity index: 1 (25-49% control)
[29]
  pre-emergent herbicidal activity index: 1 (25-49% control)
[30]
  pre-emergent herbicidal activity index: 0 (0-24% control)
[31]
  pre-emergent herbicidal activity index: 0 (0-24% control)
